Results published in patent US20230146675A1, “PYRIMIDO[5,4-d]PYRIMIDINE DERIVATIVES AS ENT INHIBITORS FOR THE TREATMENT OF CANCERS, AND COMBINATION THEREOF WITH ADENOSINE RECEPTOR ANTAGONISTS” (ITEOS BELGIUM SA, priority 2020, published 2023).

Molecular target: T1, human ENT1 (Homo sapiens, UniProt Q99808)
T1 sequence (Q99808 1-456): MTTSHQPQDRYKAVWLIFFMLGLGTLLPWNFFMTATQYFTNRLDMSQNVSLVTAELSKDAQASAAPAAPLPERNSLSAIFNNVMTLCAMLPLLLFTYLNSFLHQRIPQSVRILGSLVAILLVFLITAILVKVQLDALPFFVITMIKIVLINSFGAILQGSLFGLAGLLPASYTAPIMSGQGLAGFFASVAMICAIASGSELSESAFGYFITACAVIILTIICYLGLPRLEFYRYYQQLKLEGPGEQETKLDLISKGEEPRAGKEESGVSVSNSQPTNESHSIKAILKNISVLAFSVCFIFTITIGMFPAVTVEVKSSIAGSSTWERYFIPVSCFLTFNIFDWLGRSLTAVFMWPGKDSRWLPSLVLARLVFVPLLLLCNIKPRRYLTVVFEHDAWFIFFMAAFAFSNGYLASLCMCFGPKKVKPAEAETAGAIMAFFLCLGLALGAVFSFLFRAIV
Assay: ENT1 binding assay (competition with Sahenta-DY647 on JAR cells)
Set-up: JAR cells expressing ENT1 were bought from ATCC; host or cells: JAR cells
Conditions: binned IC50
How it was run: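 JAR cells were incubated with test compounds and the fluorescent ligand Sahenta-DY647 in competition. Plates were washed twice by centrifugation (4 min, 400 rcf, 4 °C). Binding potency was derived from the final fluorescence.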

Row | Compound | IC50
1 | COCCN(CCOC)c1nc(N2CCN(C)C(=O)C2)c2nc(N3CCN(C(C)=O)CC3)nc(N3CCC(OC)CC3)c2n1 [Compound 281, 4-(6-(4-acetylpiperazin-1-yl)-2-(bis(2-methoxyethyl)amino)-8-(4-methoxypiperidin-1-yl)pyrimido[5,4-d]pyrimidin-4-yl)-1-methylpiperazin-2-one] | 500 to 1000 nM
2 | COCCN(CCOC)c1nc(N2CCN(C)C(=O)C2)c2nc(N(CCOC)CCOC)nc(NCc3cccc(C#N)c3)c2n1 [Compound 205, 3-(((2,6-bis(bis(2-methoxyethyl)amino)-8-(4-methyl-3-oxopiperazin-1-yl)pyrimido[5,4-d]pyrimidin-4-yl)amino)methyl)benzonitrile] | < 100 nM
3 | COCCN(CCOC)c1nc(N2CCC(OC)CC2)c2nc(N(CCOC)CCOC)nc(NCc3ccc(F)c(Cl)c3)c2n1 [Compound 138, N4-(3-chloro-4-fluorobenzyl)-N2,N2,N6,N6-tetrakis(2-methoxyethyl)-8-(4-methoxypiperidin-1-yl)pyrimido[5,4-d]pyrimidine-2,4,6-triamine] | < 100 nM
4 | COCCN(CCOC)c1nc(N2CCN(C)C(=O)C2)c2nc(N(CCOC)CCOC)nc(N(C)Cc3ccccc3)c2n1 [Compound 230, 4-(8-(benzyl(methyl)amino)-2,6-bis(bis(2-methoxyethyl)amino)pyrimido[5,4-d]pyrimidin-4-yl)-1-methylpiperazin-2-one] | < 100 nM
5 | COCCCNc1nc(N(CCOC)CCOC)nc2c(N3CCC(OC)CC3)nc(N(CCOC)CCOC)nc12 [Compound 51, N2,N2,N6,N6-tetrakis(2-methoxyethyl)-8-(4-methoxypiperidin-1-yl)-N4-(3-methoxypropyl)pyrimido[5,4-d]pyrimidine-2,4,6-triamine] | 500 to 1000 nM
6 | COCCN(CCOC)c1nc(N2CCN(c3ncn(C)n3)CC2)c2nc(N(CCOC)CCOC)nc(N3CCN(c4ncn(C)n4)CC3)c2n1 [Compound 131, N2,N2,N6,N6-tetrakis(2-methoxyethyl)-4,8-bis(4-(1-methyl-1H-1,2,4-triazol-3-yl)piperazin-1-yl)pyrimido[5,4-d]pyrimidine-2,6-diamine] | 100 to 500 nM
7 | COCCN(CCOC)c1nc(N2CCN(c3ncn(C)n3)CC2)c2nc(N(CCOC)CCOC)nc(NCc3cccc(S(C)(=O)=O)c3)c2n1 [Compound 226, N2,N2,N6,N6-tetrakis(2-methoxyethyl)-8-(4-(1-methyl-1H-1,2,4-triazol-3-yl)piperazin-1-yl)-N4-(3-(methylsulfonyl)benzyl)pyrimido[5,4-d]pyrimidine-2,4,6-triamine] | 100 to 500 nM
8 | COCCN(CCOC)c1nc(N2CCN(C)C(=O)C2)c2nc(N(CCOC)CCOC)nc(N(C)Cc3cccc(OC(F)(F)F)c3)c2n1 [Compound 236, 4-(2,6-bis(bis(2-methoxyethyl)amino)-8-(methyl(3-(trifluoromethoxy)benzyl)amino)pyrimido[5,4-d]pyrimidin-4-yl)-1-methylpiperazin-2-one] | < 100 nM
9 | COCCN(CCOC)c1nc(N2CCC(C)C2)c2nc(N(CCOC)CCOC)nc(N3CCC(OC)CC3)c2n1 (centres unmarked) [Compound 91, N2,N2,N6,N6-tetrakis(2-methoxyethyl)-4-(4-methoxypiperidin-1-yl)-8-(3-methylpyrrolidin-1-yl)pyrimido[5,4-d]pyrimidine-2,6-diamine] | 100 to 500 nM
10 | COCCN(CCOC)c1nc(N2CCC(OC)CC2)c2nc(N(CCOC)CCOC)nc(N3CCC(NC(C)=O)CC3)c2n1 [Compound 88, N-(1-(2,6-bis(bis(2-methoxyethyl)amino)-8-(4-methoxypiperidin-1-yl)pyrimido[5,4-d]pyrimidin-4-yl)piperidin-4-yl)acetamide] | 500 to 1000 nM
11 | COCCN(CCOC)c1nc(N2CCCCC2)c2nc(N(CCO)CCO)nc(N3CCN(c4nccs4)CC3)c2n1 [Compound 39, 2,2′-((6-(bis(2-methoxyethyl)amino)-8-(piperidin-1-yl)-4-(4-(thiazol-2-yl)piperazin-1-yl)pyrimido[5,4-d]pyrimidin-2-yl)azanediyl)diethanol] | < 100 nM
12 | COCCN(CCOC)c1nc(N2CCC(OC)CC2)c2nc(N(CCOC)CCOC)nc(NCC(C)C)c2n1 [Compound 127, N4-isobutyl-N2,N2,N6,N6-tetrakis(2-methoxyethyl)-8-(4-methoxypiperidin-1-yl)pyrimido[5,4-d]pyrimidine-2,4,6-triamine] | 100 to 500 nM
13 | COCCN(CCOC)c1nc(N2CCC(OC)CC2)c2nc(N(CCOC)CCOC)nc(NCc3ccc(F)c(F)c3)c2n1 [Compound 139, N4-(3,4-difluorobenzyl)-N2,N2,N6,N6-tetrakis(2-methoxyethyl)-8-(4-methoxypiperidin-1-yl)pyrimido[5,4-d]pyrimidine-2,4,6-triamine] | < 100 nM
14 | COCCN(CCOC)c1nc(N2CC(O)(C(F)(F)F)C2)c2nc(N(CCOC)CCOC)nc(N3CCN(C)C(=O)C3)c2n1 [Compound 189, 4-(2,6-bis(bis(2-methoxyethyl)amino)-8-(3-hydroxy-3-(trifluoromethyl)azetidin-1-yl)pyrimido[5,4-d]pyrimidin-4-yl)-1-methylpiperazin-2-one] | 100 to 500 nM
15 | COCCN(CCOC)c1nc(N2CC[C@@H](O)C2)c2nc(N(CCOC)CCOC)nc(N3CCC(OC)CC3)c2n1 [Compound 93, (R)-1-(2,6-bis(bis(2-methoxyethyl)amino)-8-(4-methoxypiperidin-1-yl)pyrimido[5,4-d]pyrimidin-4-yl)pyrrolidin-3-ol] | 500 to 1000 nM
16 | COCCN(CCOC)c1nc(N2CCC(OC)CC2)c2nc(N(CCOC)CCOC)nc(NCc3nccs3)c2n1 [Compound 58, N2,N2,N6,N6-tetrakis(2-methoxyethyl)-8-(4-methoxypiperidin-1-yl)-N4-(thiazol-2-ylmethyl)pyrimido[5,4-d]pyrimidine-2,4,6-triamine] | 500 to 1000 nM
17 | COCCN(CCOC)c1nc(N2CCC(OC)CC2)c2nc(N(CCOC)CCOC)nc(NCc3cccc(Cl)c3)c2n1 [Compound 141, N4-(3-chlorobenzyl)-N2,N2,N6,N6-tetrakis(2-methoxyethyl)-8-(4-methoxypiperidin-1-yl)pyrimido[5,4-d]pyrimidine-2,4,6-triamine] | < 100 nM
18 | COCCN(CCOC)c1nc(N2CCn3nccc3C2)c2nc(N(CCOC)CCOC)nc(N3CCN(C)C(=O)C3)c2n1 [Compound 260, 4-(2,6-bis(bis(2-methoxyethyl)amino)-8-(6,7-dihydropyrazolo[1,5-a]pyrazin-5(4H)-yl)pyrimido[5,4-d]pyrimidin-4-yl)-1-methylpiperazin-2-one] | < 100 nM
19 | COCCN(CCOC)c1nc(N2CCn3ccnc3C2)c2nc(N(CCOC)CCOC)nc(N3CCN(C)C(=O)C3)c2n1 [Compound 257, 4-(2,6-bis(bis(2-methoxyethyl)amino)-8-(5,6-dihydroimidazo[1,2-a]pyrazin-7(8H)-yl)pyrimido[5,4-d]pyrimidin-4-yl)-1-methylpiperazin-2-one] | < 100 nM
20 | COCCN(CCOC)c1nc(N2CCC(OC)CC2)c2nc(N(CCOC)CCOC)nc(NCc3cnn(C(C)C)c3)c2n1 [Compound 163, N4-((1-isopropyl-1H-pyrazol-4-yl)methyl)-N2,N2,N6,N6-tetrakis(2-methoxyethyl)-8-(4-methoxypiperidin-1-yl)pyrimido[5,4-d]pyrimidine-2,4,6-triamine] | 100 to 500 nM
21 | COCCN(CCOC)c1nc(N2CCN(C)C(=O)C2)c2nc(N(CCOC)Cc3cc(OC)c(OC)c(OC)c3)nc(N3CCC(OC)CC3)c2n1 [Compound 269, 4-(2-(bis(2-methoxyethyl)amino)-6-((2-methoxyethyl)(3,4,5-trimethoxybenzyl)amino)-8-(4-methoxypiperidin-1-yl)pyrimido[5,4-d]pyrimidin-4-yl)-1-methylpiperazin-2-one] | < 100 nM
22 | COCCN(CCOC)c1nc(N2CCS(=O)(=O)CC2)c2nc(N(CCOC)CCOC)nc(N3CCS(=O)(=O)CC3)c2n1 [Compound 37, 4,4′-(2,6-bis(bis(2-methoxyethyl)amino)pyrimido[5,4-d]pyrimidine-4,8-diyl)bis(thiomorpholine 1,1-dioxide)] | 500 to 1000 nM
23 | COCCN(CCOC)c1nc(N2CCc3nn(C)cc3C2)c2nc(N(CCOC)CCOC)nc(N3CCN(C)C(=O)C3)c2n1 [Compound 252, 4-(2,6-bis(bis(2-methoxyethyl)amino)-8-(2-methyl-2,4,6,7-tetrahydro-5H-pyrazolo[4,3-c]pyridin-5-yl)pyrimido[5,4-d]pyrimidin-4-yl)-1-methylpiperazin-2-one] | < 100 nM
24 | COCCN(CCOC)c1nc(N2CCc3cc(OC)c(OC)cc3C2)c2nc(N(CCOC)CCOC)nc(N3CCc4cc(OC)c(OC)cc4C3)c2n1 [Compound 4, 4,8-bis(6,7-dimethoxy-3,4-dihydroisoquinolin-2(1H)-yl)-N2,N2,N6,N6-tetrakis(2-methoxyethyl)pyrimido[5,4-d]pyrimidine-2,6-diamine] | 100 to 500 nM
25 | COCCN(CCOC)c1nc(N2CCC(OC)CC2)c2nc(N(CCOC)CCOC)nc(N3CCOCC3)c2n1 [Compound 69, N2,N2,N6,N6-tetrakis(2-methoxyethyl)-4-(4-methoxypiperidin-1-yl)-8-morpholinopyrimido[5,4-d]pyrimidine-2,6-diamine] | 500 to 1000 nM
26 | COCCN(CCOC)c1nc(N2CCC(OC)CC2)c2nc(N(CCOC)CCOC)nc(NCCC(C)(C)O)c2n1 [Compound 178, 4-((2,6-bis(bis(2-methoxyethyl)amino)-8-(4-methoxypiperidin-1-yl)pyrimido[5,4-d]pyrimidin-4-yl)amino)-2-methylbutan-2-ol] | 500 to 1000 nM
